PubChem BioAssay AID588394 (NMMLSC, 2011)
Activity calls are given as the source filed them.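 Rule for the calls: active = half-maximal effective concentration at most 10 microM and response span at least 30% from a well-fitted curve; inactive = the rest.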

Biological target: Rab7 GTPase wild-type (Canis lupus familiaris), GST fusion
Experiment: blockers of fluorescent GTP uptake by Rab7 – biochemical, dog Rab7, bead multiplex flow cytometry, round 1, SAR follow-up (AID 588394)
Conditions: Bead-based flow cytometry, Bodipy-FL-GTP binding, EDTA; for percent response, lower = inhibition: at 100 µM (top of the series)

For `CCOC(=O)c1c(NC(=O)Nc2ccc(C)cc2)sc2c1CCN(C)C2`, the “percent response, lower = inhibition” value was “inactive”.

For `CCOC(=O)c1c(NC(=O)Nc2ccc(F)cc2)sc2c1CCN(C)C2`, the “percent response, lower = inhibition” value was “inactive”.

In the case of `CCOC(=O)c1c(NC(=S)NC(=O)c2ccccc2)sc2ccccc12`, the “percent response, lower = inhibition” value is reported as “inactive”.

In the case of `CC1(C)Cc2c(sc(NC(=S)Nc3ccccc3)c2C(=O)O)CO1`, the “percent response, lower = inhibition” value is reported as “inactive”.

With `COc1cccc(C(=O)NC(=S)Nc2sc3c(c2C(=O)O)CC(C)(C)OC3)c1` the EC50 was 55 nM.

In the case of `COc1ccc(C(=O)NC(=S)Nc2sc3c(c2C(=O)O)CC(C)(C)OC3)cc1`, the EC50 is reported as 126 nM.

For `CC1(C)Cc2c(sc(NC(=S)NC(=O)c3ccc(Br)cc3)c2C(=O)O)CO1`, the EC50 was 269 nM.

With `CN1CCc2c(sc(NC(=O)Nc3ccc(F)cc3)c2C(=O)O)C1` the “percent response, lower = inhibition” value was “inactive”.

`CC1(C)Cc2c(sc(NC(=S)NC(=O)c3ccccc3F)c2C(=O)O)CO1` showed an EC50 of 56 nM.

`CCOC(=O)c1c(N)sc2ccccc12` was tested, and the “percent response, lower = inhibition” value was “inactive”.

With `CCOC(=O)c1c(NC(=O)NC(C)(C)C)sc2c1CCN(C)C2` the “percent response, lower = inhibition” value was “inactive”.

With `CCOC(=O)c1c(NC(=S)Nc2ccccc2)sc2c1CC(C)(C)OC2` the “percent response, lower = inhibition” value was “inactive”.

`CC1(C)Cc2c(sc(NC(=O)Cc3ccccc3)c2C(=O)O)CO1` was tested, and the “percent response, lower = inhibition” value was “inactive”.

With `CC1(C)Cc2c(sc(NC(=S)NC(=O)c3ccccc3Br)c2C(=O)O)CO1` the EC50 was 46 nM.

In the case of `CN1CCc2c(sc3nc(Nc4ccc(F)cc4)oc(=O)c23)C1`, the “percent response, lower = inhibition” value is reported as “inactive”.

With `CC1(C)CCc2sc(NC(=S)NC(=O)c3ccccc3)c(C(=O)O)c2C1` the EC50 was 72 nM.

`Cc1ccc(NC(=O)Nc2sc3c(c2C(=O)O)CCN(C)C3)cc1` was tested, and the “percent response, lower = inhibition” value was “inactive”.

With `CC1(C)Cc2c(sc(NC(=S)NC(=O)c3cccc(F)c3)c2C(=O)O)CO1` the EC50 was 308 nM.

In the case of `COC(=O)c1c(N)sc2c1CC(C)(C)OC2`, the “percent response, lower = inhibition” value is reported as “inactive”.

`CC1(C)Cc2c(sc(NC(=S)NC(=O)c3cccc(Br)c3)c2C(=O)O)CO1` was tested, and the EC50 was 2280 nM.

With `CC(C)(C)OC(=O)c1c(NC(=S)NC(=O)c2ccccc2)sc2c1CCOC2` the “percent response, lower = inhibition” value was “inactive”.

In the case of `Cc1ccc(Nc2nc3sc4c(c3c(=O)o2)CCN(C)C4)cc1`, the “percent response, lower = inhibition” value is reported as “inactive”.
